Read-outs that look alike come from different tables or passages of the source.
Key:
glutathione (GSH) = experiment: Induction of glutathione (GSH) in mouse liver and mammary glands (Table 3); assay type: in vivo
[1] = tested on: QR ARE-CAT construct, HepG2 cells; experiment: CAT expression in HepG2 cells transfected with QR ARE-CAT; assay type: cell-based, human cells; rat QR gene; details: 10 μM, 48 h; p<0.0001; listed as 4'-BF
Description: Transcient Transfection Gene Expression Assay. Cultured HepG2 human hepatoma cells were transfected with three plasmid constructs (PDTD-1697CAT, XRE-CAT, ARE-CAT) containing various portions of the 5'-region of the QR gene fused to the CAT gene using the calcium phosphate precipitation method (J. Sambrook et al., Molecular cloning: A Laboratory Handbook, Ed. Chris Nolan, CHS Laboratory Press, 1989). After 4 hours of transfection, the cells were treated with 10% glycerol for 3 minutes and rinsed with PBS and switched to MEM, containing 100 units/ml penicillin G sodium, 100 units/ml streptomycin sulfate, nonessential amino acids, and 1 mM sodium pyruvate (Life Technologies Inc.) supplemented with 10% fetal bovine serum for 12-16 hours recovery. Then, test agents were added to the cells. After 48 hours of treatment with the test agents, cells were harvested with lysis buffer (Boehringer Mannheim Biochemical) and CAT protein expressions were assessed using a CAT ELISA kit (Boehringer Mannheim Biochemical). CAT enzyme expression was normalized for the protein content of each sample. All data were expressed as mean +/- SD. Means were compared using Student's t test with n=4.
This was further investigated in transient transfection experiments wherein human hepatoma cells were transfected with DNA constructs containing various portions of the 5' upstream promoter region of the QR gene linked to the CAT reporter gene by using the calcium phosphate precipitation method. Construct pDTD-1097CAT contains elements of the rat QR gene connected to the CAT construct gene. […]
In particular, FIG. 1 illustrates quantitation of CAT expression in HepG2 cells transfected with QR-CAT constructs. […] CAT expression (ng CAT/mg protein) was determined using a CAT ELISA, and the ratio of CAT expression between treated and control cells was calculated (ratio=treated/control).

[2] = tested on: QR mRNA, Hepa 1c1c7 cells; experiment: RT-PCR of QR mRNA in Hepa 1c1c7 cells; assay type: cell-based, murine
Description: RT-PCR Analysis of QR mRNA Expression. Primers were designed based on rat QR gene and custom synthesis. Total RNA was isolated from cultured Hepa 1c1c7 cells with TRIzol® reagent (Life Technologies, Inc.) and quantified using a UV-spectrometer. The reverse transcription of RNA was performed in a final volume of 20 μl containing 5× First Straind Synthesis Buffer (Life Technologies, Inc.), 5 mM MgCl2, 1 mM of each dNTPs, 1 unit Rnase inhibitor (Life Technologies, Inc.), 2.5 units SuperScript II reverse transcriptase (Life Technologies, Inc.), 2.5 μM oligo (dT)16, 0.2 μg total RNA, and DEPC-treated water. After incubation at 47° C. for 30 min, the RT-reaction was terminated by heating to 70° C. for 15 minutes. To the newly synthesized cDNA (1 μL), a PCR reaction mixture (Advantage KlenTaq polymerase Mix, CloneTech) containing 3 mM MgCl2, 2.5 units Taq polymerase, 6 pmol of primers for QR gene (5'-[…]-3'; and 3 pmol of primers for β-actin, 5'-[…]-3'), (5'-[…]-3'; 5'-[…]-3') as internal control was added to bring the final volume to 50 μl. The PCR reaction was heated to 94° C. for 1 min and immediately cycled 27 times through a 30 second denaturing step at 94° C., a 45 second annealing step at 55° C., a 60 second elongation step at 72° C. with Perkin Elmer 2400 themocycler. Following the final cycle, a 5 minute elongation step at 72° C. was performed. Aliquots of the PCR product were electrophoresed on 2.5% agarose gels (Life Technologies, Inc.), and PCR fragments were visualized with ethidium bromide staining, quantified by scanning densitometry, and expressed as folds increase after normalization to β-actin gene expression.
Induction of QR mRNA in Hepa 1c1c7 Cells. […] EHPA 1c1c7 cells were treated with 4'-BF (10 μM) or DMSO (solvent control) for 2, 4, 8, 16, 24, or 48 hours. […] Dose-dependent effects of 4'-BF were analyzed at the time of maximum induction (24 hours), and QR mRNA expression was induced in the concentration range of 0.8-50 μM. In particular, FIG. 2 illustrates RT-PCR analysis of QR mRNA levels in Hepa 1c1c7 cells after treatment with 4'-BF. In FIG. 2(A), Hepa 1c1c7 cells were treated with the indicated concentrations of 4'-BF for 24 hours. In FIG. 2(B), Hepa 1c1c7 cells were treated with 10 μM 4'-BF for the indicated periods of time. Reverse transcription was carried out by SuperScript II reverse transcriptase (Life Technologies, Inc.) and oligo(dT)16. The cDNA was amplified with Advantage Klen Taq polymerase (Clontech) by using QR primers and β-acrin (internal control), aliquots of the PCR product were electrophoresed on 2.5% agarose gels (Bio-Rad), and PCR fragments were visualized with ethidium bromide staining.

Hepa 1c1c7 cells = experiment: Hepa 1c1c7 cell viability (cytotoxicity); assay type: cell-based, murine; details: for IC50: read-out: IC50, concentration for 50% inhibition of cell viability
cytochrome P4501A1 = experiment: Inhibition of TCDD-induced EROD activity; assay type: biochemical

SMILES: O=c1cc(-c2ccc(Br)cc2)oc2ccccc12 [4'-Bromoflavone]
- GSH (Treated/Control), Liver (glutathione (GSH); liver): 2.11
- GSH (Treated/Control), Mammary Gland (glutathione (GSH); mammary gland): 1.77
- CAT expression, QR ARE-CAT [1]: significantly (P<0.0001, students t test with n=4) induced
- QR mRNA levels ([2]; 0-50 μM for 24 h): significantly increased by 4'-BF at various concentrations
- QR mRNA, time course from 8 to 24 hours ([2]; 10 μM): no significant differences from 8 to 24 hours
- incubation time after which QR mRNA increased ([2]; 10 μM): 8 h
- time of maximum QR mRNA induction ([2]; 10 μM): 24 h
- concentration range of QR mRNA induction ([2]; 24 h): 0.8 to 50 µM
- IC50 (Hepa 1c1c7 cells; Hepa 1c1c7 cells): ≥ 166 µM
- IC50 (Hepa 1c1c7 cells; Mus musculus, Hepa-1c1c7, Hepa 1c1c7 cells): > 166 µM
- times less toxic than sulforaphane (Hepa 1c1c7 cells; compared to sulforaphane): about 15 times
- inhibition of TCDD-induced EROD activity (cytochrome P4501A1): significantly inhibit

— patent US6046231A, “Use of 4'-bromoflavone in a cancer chemopreventative composition and method” (The Board of Trustees of the University of Illinois, priority 1999, dated 2000)
